Test results: patent publication US20100081661A1, “HEME OXYGENASE INHIBITORS, SCREENING METHODS FOR HEME OXYGENASE INHIBITORS AND METHODS OF USE OF HEME OXYGENASE INHIBITORS FOR ANTIMICROBIAL THERAPY” (UNIVERSITY OF MARYLAND, BALTIMORE, priority 2006, published 2010)
Like-named read-outs stand apart in the source and are kept apart here.

Legend:
[1] = biological target: T1, nm-HO (Neisseria meningitidis, UniProt Q9AH50); experiment: biochemical; format: binding
[2] = biological target: T2, pa-HO (Pseudomonas aeruginosa, UniProt O69002); experiment: biochemical; format: binding; details: for Kd: read-out: Fluorescence pa-HO Kd
T2 sequence (O69002 1-198): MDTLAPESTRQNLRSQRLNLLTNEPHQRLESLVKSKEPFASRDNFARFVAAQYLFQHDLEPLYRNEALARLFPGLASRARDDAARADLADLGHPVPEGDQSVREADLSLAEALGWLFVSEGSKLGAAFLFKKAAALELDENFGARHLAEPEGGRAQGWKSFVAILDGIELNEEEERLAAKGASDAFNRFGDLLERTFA

[3] = biological target: T2, pa-HO; format: binding; details: for NMR sat. transfer: Table 2, paHO; for NMR pa-HO: Table 3A
[4] = biological target: T1, nm-HO; format: cell-based; parameters: key to E. coli assay biliverdin pigmentation: + biliverdin observed in cell pellet; − biliverdin not observed
[5] = test system: P. aeruginosa; experiment: MIC50 for P. aeruginosa; format: cell-based, Pseudomonas aeruginosa; details: for MIC / minimum inhibition conc: Table 2; for MIC: read-out: minimum inhibition conc
[6] = test system: C. elegans; experiment: C. elegans assay (infected worms); format: in vivo; details: for C. elegans: Table 3A, infected worms
[7] = test system: P. aeruginosa MPA01; format: cell-based; details: 500 μM and above
[8] = Table 2, colour of cell pellet (white = no biliverdin, green = biliverdin) or toxicity to cells
[9] = Table 3B, nm-HO in E. coli expression system
[10] = Pseudomonas aeruginosa, Table 3A, read-out: MIC 50
[11] = Table 4, target not named, values match nm-HO of Table 3A
[12] = Pseudomonas aeruginosa, Table 3B, P. aeruginosa, read-out: MIC 50
Wherever NMR pa-HO is given: key: Shows binding by NMR method = +; Ambig = ambiguous.

T1 sequence (Q9AH50 1-209): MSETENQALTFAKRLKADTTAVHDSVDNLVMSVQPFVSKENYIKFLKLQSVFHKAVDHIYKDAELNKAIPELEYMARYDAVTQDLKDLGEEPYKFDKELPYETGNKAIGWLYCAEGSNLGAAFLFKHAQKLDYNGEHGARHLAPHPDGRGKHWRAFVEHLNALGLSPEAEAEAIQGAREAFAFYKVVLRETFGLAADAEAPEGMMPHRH

Row | Structure (SMILES) | fluorescence binding [2] | NMR sat. transfer [3] | NMR pa-HO [3] | E. coli assay [4, 8] | Biliverdin detection from E. coli Assay ([4]; Table 3A, pellet colour) | Biliverdin detection from E. coli Assay [4, 9] | E. coli assay ([4]; Table 4) | MIC ([5]; Pseudomonas aeruginosa) [µg/mL] | MIC50 [5, 10] [µg/mL] | MIC50 ([5]; Table 3B, P. aeruginosa) [µg/mL] | Kd [1] [µM] | further results
1 | CN(C)c1ccc(/C=N/NC(=N)N)cc1 [Compound 1] | yes | yes, bind paHO | + | white pellet | White pellet | White pellet | White pellet | > 160 | > 160 | >160 |  | Kd ([1]; Table 3A, read-out: Fluorescence nm-HO Kd): 22.9 µM; Kd ([1]; Table 4, target not named, values match nm-HO of Table 3A, read-out: Kd): 22.9 µM; Kd ([2]; Table 3A): 30.1 µM; E. coli assay biliverdin pigmentation ([4]; E. coli cells expressing nm-HO, cell pellet): −; C. elegans assay ([6]; Table 2): yes
2 | NC(=O)c1ccc(NC(=O)/C=C\C(=O)O)cc1Cl [Compound 8] |  |  |  | green pellet | Green Pellet | Green Pellet | Green Pellet | > 750 | > 750 | >750 |  | 
3 | O=C(NNC(=O)c1ccncc1)c1ccncc1 [Compound 24] | Alias: CD-18 (Compound 7 in manuscript) fluorescence binding: yes minimum inhibition conc: nd NMR sat. transfer: nd E. coli assay: green pellet |  |  | Alias: CD-18 (Compound 7 in manuscript) fluorescence binding: yes minimum inhibition conc: nd NMR sat. transfer: nd E. coli assay: green pellet | Green Pellet | Green Pellet |  |  |  |  |  | E. coli assay ([4]; Table 5): Green Pellet
4 | O=C(Cc1ccc([N+](=O)O)cc1)N/N=C/c1ccc(O)cc1 [Compound 44] |  | Alias: CB-22 fluorescence binding: nd minimum inhibition conc: nd NMR sat. transfer: tested, ambiguous | Ambig |  |  |  |  |  |  |  | 12.3 | 
5 | COc1ccc(C(=O)CCC(=O)O)c(C)c1 [Compound 59] | yes | yes, bind paHO | + |  |  |  |  | > 1000 | > 1000 | >1000 |  | 
6 | O=C(O)/C=C\C(=O)Nc1ccc(Nc2ccccc2)cc1 [Compound 75] | yes |  |  | white pellet | White pellet | White pellet | White pellet | > 1000 | > 1000 | >1000 | 15.6 | Kd ([2]; Table 3A): 20.1 µM; C. elegans [6]: no effect
7 | NCc1ccc2c3c(cccc13)C(=O)N2 [Compound 87] |  | yes, bind paHO | + |  |  |  |  | > 125 | > 125 | >125 |  | C. elegans [6]: Inconclusive
8 | O=C1C=C(Nc2ccccc2O)c2ccccc2C1=O [Compound 114] | yes |  |  | toxic to cells | Toxic | Toxic |  |  |  |  | 28.8 | E. coli assay ([4]; Table 6): Toxic
9 | CC(=O)Nc1ccc(/N=C/c2ccco2)cc1 [Compound 119] | yes | do not bind paHO |  |  |  |  |  |  |  |  |  | 
10 | O=C(Cc1ccc(Cl)cc1)N/N=C/c1c[nH]c2ccccc12 [Compound 126] | yes |  |  | white pellet | White pellet | White pellet | White pellet |  |  |  | 14.1 | Kd [1, 11]: 14.1 µM; Kd ([2]; Table 3A): 15.8 µM; MIC50 [5, 12]: > 1000 µg/mL; minimum inhibition conc [5]: no antibacterial activity; MIC 50 (ug/ml) ([5]; Table 3A): no antibact activity
11 | O=C(c1ccco1)C12CN3CN(CN(C3)C1)C2 [Compound 133] |  |  |  | Alias: CB-9 fluorescence binding: nd minimum inhibition conc: nd NMR sat. transfer: nd E. coli assay: green pellet | Green Pellet | Green Pellet | Green Pellet |  | > 380 | >380 |  | 
12 | Cl.N=C(N/N=C\c1cccnc1)N/N=C\c1cccnc1 [Compound 148] | Alias: CB-31 Compound 1 in manuscript fluorescence binding: yes minimum inhibition conc: no antibacterial activity NMR sat. transfer: E. coli assay: white pellet |  |  | white pellet | White pellet | White pellet | White pellet |  |  |  | 12.2 | Kd [1, 11]: 12.2 µM; Kd [2]: 15.9 µM; MIC50 [5, 12]: > 1000 µg/mL; minimum inhibition conc [5]: no antibacterial activity; MIC 50 (ug/ml) ([5]; Table 3A): no antibact activity
13 | CCN(CC)c1ccc(/C=N/n2nnnc2N)c(O)c1 [Compound 149] | yes | do not bind paHO |  |  |  |  |  |  |  |  |  | 
14 | O=C(O)CN1C(=O)c2ccccc2C1=O [Compound 150] | yes | yes, bind paHO | + |  |  |  |  |  |  |  |  | MIC50 [5, 12]: > 1000 µg/mL; minimum inhibition conc [5]: no antibacterial activity; MIC 50 (ug/ml) ([5]; Table 3A): no antibact activity
15 | O=C(O)/C=C\C(=O)Nc1ccc(Nc2ccccc2)cc1 [chembridge010392] |  |  |  |  |  |  |  |  |  |  |  | inhibitory effect in the presence of Fe(III)-pyoverdine [7]: slight inhibitory effect
